Results: patent publication US5527820A, “Antibiotics having immunosuppressive activity, delaminomycins and processes for the production of the same” (priority 1992, dated 1996)
Converted amounts (≈) assume the structure as drawn.

Legend:
[1] = in vivo
[2] = system: Trichophyton asteroides 429; experiment: MIC, agar plate dilution method; assay type: cell-based; conditions: 27° C., 42 hours, nutrient agar containing glucose
Piricularia oryzae = experiment: microbe, parasite or virus in culture; assay type: cell-based; conditions: 42 h
[3] = system: spleen cells (T cells activated by Concanavalin A); experiment: Inhibitory activity against blastogenesis and proliferation of spleen cells caused by mitogen (Con A); assay type: cell-based, mouse (CDF1)
Pellicularia sasakii = experiment: MIC, agar plate dilution method; assay type: cell-based; conditions: 27° C., 42 hours, nutrient agar containing glucose
Candida Yu-1200 = experiment: MIC, agar plate dilution method; assay type: cell-based; conditions: YU1200, 27° C., 42 hours, nutrient agar containing glucose
Aspergillus niger F-16 = experiment: MIC, agar plate dilution method; assay type: cell-based; conditions: F16, 27° C., 42 hours, nutrient agar containing glucose
Candida tropicalis F-1 = experiment: MIC, agar plate dilution method; assay type: cell-based; conditions: F1, 27° C., 42 hours, nutrient agar containing glucose
Mouse leukemia L-1210 = experiment: Inhibitory activity on proliferation of cancer cells; assay type: cell-based; conditions: L1210
Mouse leukemia EL-4 = experiment: as above; assay type: cell-based; conditions: EL4
[4] = system: delayed-type hypersensitivity (DTH); experiment: Suppressive effect on delayed-type hypersensitivity (DTH) in mouse, oral; assay type: in vivo, mouse (CDF1); conditions: oral once a day, 0~4th day
Experimental: (§1) CDF1 mice were immunized by intravenously injecting sheep red blood cells (10^5 cells/mouse). On the 4th day after the immunization, sheep red blood cells (10^8 cells/mouse) were subcutaneously injected into the footpad of mice for the elicitation to cause a delayed-type hypersensitivity. Test compound was orally administered to the mice once a day from the 0 th day to the 4 th day after the immunization. On the 5th day after the elicitation, the thickness of the mouse footpad was measured to estimate the suppressive effect of the test compound on DTH. The suppressive effect of the test compound was evaluated in terms of the inhibition rate (%) as calculated according to the following equation:
(§2) Inhibition rate (%)=100-(T/C×100)
wherein T denotes the thickness of the footpad when the test compound was administered, but C denotes the thickness of the footpad when no test compounnd was administered.

Human Lymphoma Jurkat = experiment: Inhibitory activity on proliferation of cancer cells; assay type: cell-based
[5] = system: Cryptococcus neoformans F-10; experiment: MIC, agar plate dilution method; assay type: cell-based; conditions: F10, 27° C., 42 hours, nutrient agar containing glucose
Mouse melanoma B-16 = experiment: Inhibitory activity on proliferation of cancer cells; assay type: cell-based; conditions: B16
[6] = system: Trichophyton mentagrophytes F-15 (833); experiment: MIC, agar plate dilution method; assay type: cell-based; conditions: 27° C., 42 hours, nutrient agar containing glucose
[7] = system: Candida pseudotropicalis F-2; experiment: MIC, agar plate dilution method; assay type: cell-based; conditions: Kluyveromyces marxianus, F2; 27° C., 42 hours, nutrient agar containing glucose
Mouse leukemia P388D1 = experiment: Inhibitory activity on proliferation of cancer cells; assay type: cell-based
Candida krusei F-5 = experiment: MIC, agar plate dilution method; assay type: cell-based; conditions: Pichia kudriavzevii, F5; 27° C., 42 hours, nutrient agar containing glucose
[8] = system: nylon wool-passed cells of spleen cells (responder cell; T cells); experiment: Inhibitory activity to the mixed lymphocyte culture reaction; assay type: cell-based, rat (Fischer F344 responder; WKY stimulator)
[9] = system: delayed-type hypersensitivity (DTH); experiment: Suppressive effect on delayed-type hypersensitivity (DTH) in mouse, intraperitoneal; assay type: in vivo, mouse (CDF1); conditions: intraperitoneal once a day, 0-4th day
Source text: Suppressive effect of delaminomycins on delayed-type hypersensitivity (DTH) in mouse
as §1, with “hypersensitivity (DTH).” for “hypersensitivity.”, “intraperitoneally” for “orally”, “0th” for “0 th”, “4th” for “the 4 th”, “elicitation” for “elicitation,”, “the DTH response.” for “DTH.”
as §2
wherein T denotes the thickness of the footpad when administering the test compound, but C denotes the thickness of the footpad when administering no test compound.

Cochliobolus miyabeanus = experiment: MIC, agar plate dilution method; assay type: cell-based; conditions: Bipolaris oryzae; 27° C., 42 hours, nutrient agar containing glucose
Experimental: (§3) Delaminomycins A, B, C, A2, B2 and C2 according to this invention further have an antibacterial activity against a variety of bacteria. The minimum growth inhibitory concentrations (MIC) (μg/ml) of the novel antibiotics of this invention on various bacteria and fungi as measured by the agar plate dilution method are shown in Table 5a, Table 5b, Table 5c and Table 5d below.
(§4) Evaluated after culturing at 27° C. for 42 hours in nutrient agar
(§5) medium containing glucose.

Xanthomonas citri = experiment: MIC, agar plate dilution method; assay type: cell-based; conditions: 27° C., 42 hours, nutrient agar containing glucose
Experimental: as §3, §4, §5

Gram-positive bacteria = experiment: Antibacterial activity to Gram-positive bacteria; assay type: cell-based; conditions: result in words
Source text: as §3

Candida albicans 3147 = experiment: MIC, agar plate dilution method; assay type: cell-based; conditions: 27° C., 42 hours, nutrient agar containing glucose
[10] = system: Saccharomyces cerevisiae F-7; experiment: MIC, agar plate dilution method; assay type: cell-based; conditions: F7, 27° C., 42 hours, nutrient agar containing glucose

CCC(O)C(C)/C=C/C=C/C1CC2C=CC3CC(C)CC(C)C3C2(C)C(=O)C12C(=O)NC(O)C2=O (stereo not drawn) [Delaminomycin A2]
absorption into the digestive tracts / oral absorption [1]: hardly absorbed into the digestive tracts | MIC [2]: > 100 µg/mL | MIC (Piricularia oryzae): > 100 µg/mL | IC50 ([3]; Mus musculus, T-cell, read-out: IC50 (inhibition of blastogenesis and proliferation of spleen lymphocyte caused by Con A)): 0.78 µg/mL (≈ 1.61 µM) | inhibition at 0.2 µg/mL ([3]; Mus musculus, T-cell, 0.20 μg/ml test compound, read-out: Inhibition rate): 1.5% | inhibition at 0.78 µg/mL ([3]; Mus musculus, T-cell, 0.78 μg/ml test compound, read-out: Inhibition rate): 50.5% | inhibition at 3.1 µg/mL ([3]; Mus musculus, T-cell, 3.1 μg/ml test compound, read-out: Inhibition rate): 76.3% | inhibition at 12.5 µg/mL ([3]; Mus musculus, T-cell, 12.5 μg/ml test compound, read-out: Inhibition rate): 95.1% | inhibition at 50 µg/mL ([3]; Mus musculus, T-cell, 50 μg/ml test compound, read-out: Inhibition rate): 96.5% | activity inhibitory to the reaction of proliferation of mouse spleen cells activated with Concanavalin A ([3]; in vitro, result in words): exhibit an activity inhibitory to the reaction of proliferation of mouse spleen cells | MIC (Pellicularia sasakii): > 50 µg/mL | MIC (Candida Yu-1200): > 100 µg/mL | MIC (Aspergillus niger F-16): > 100 µg/mL | MIC (Candida tropicalis F-1): > 100 µg/mL | IC50 (Mouse leukemia L-1210): 3.7 µg/mL (≈ 7.65 µM) | IC50 (Mouse leukemia EL-4): 4.1 µg/mL (≈ 8.48 µM) | Inhibition rate (DTH footpad thickness) ([4]; 0.5 mg/mouse): 7.7% | Inhibition rate (DTH footpad thickness) ([4]; 2.0 mg/mouse): 23.4% | Inhibition rate (DTH footpad thickness) ([4]; 8.0 mg/mouse): 36.1% | IC50 (Human Lymphoma Jurkat): 5.9 µg/mL (≈ 12.2 µM) | MIC [5]: > 100 µg/mL | IC50 (Mouse melanoma B-16): 8.3 µg/mL (≈ 17.2 µM) | MIC [6]: > 100 µg/mL | MIC [7]: > 100 µg/mL | IC50 (Mouse leukemia P388D1): 10 µg/mL (≈ 20.7 µM) | MIC (Candida krusei F-5): > 100 µg/mL | inhibition at 0.1 µg/mL ([8]; Rattus norvegicus, T-cell, 0.10 μg/ml test compound, read-out: Inhibition rate): 16% | inhibition at 0.39 µg/mL ([8]; Rattus norvegicus, T-cell, 0.39 μg/ml test compound, read-out: Inhibition rate): 5% | inhibition at 1.56 µg/mL ([8]; Rattus norvegicus, T-cell, 1.56 μg/ml test compound, read-out: Inhibition rate): 0% | inhibition at 25 µg/mL ([8]; Rattus norvegicus, T-cell, 25 μg/ml test compound, read-out: Inhibition rate): 94% | inhibition at 100 µg/mL ([8]; Rattus norvegicus, T-cell, 100 μg/ml test compound, read-out: Inhibition rate): 56% | IC50 ([8]; Rattus norvegicus, T-cell, 120 hours, 3H-thymidine incorporation, read-out: IC50 (inhibition of mixed lymphocyte culture reaction)): 13.9 µg/mL (≈ 28.7 µM) | activity to inhibit the proliferation of the T cells (responder cell) in mixed lymphocyte culture reaction ([8]; in vitro, result in words): have an activity to inhibit the reaction of proliferation of the T cells | Inhibition rate (DTH footpad thickness) ([9]; 15.6 μg/mouse): 1.9% | Inhibition rate (DTH footpad thickness) ([9]; 62.5 μg/mouse): 3.5% | Inhibition rate (DTH footpad thickness) ([9]; 250 μg/mouse): 26.6% | Inhibition rate (DTH footpad thickness) ([9]; 1000 μg/mouse): 99.3% | MIC (Cochliobolus miyabeanus): > 100 µg/mL | MIC (Xanthomonas citri): > 100 µg/mL | antibacterial activity to Gram-positive bacteria (Gram-positive bacteria): antibacterial activity to Gram-positive bacteria | MIC (Candida albicans 3147): > 100 µg/mL | MIC [10]: > 100 µg/mL
